Results as given in patent US11220504B2, “Pyrrolo[3,2-d] pyrimidine derivatives for the treatment of viral infections and other diseases” (JANSSEN SCIENCES IRELAND UNLIMITED COMPANY, priority 2012, dated 2022).

Key:
human TLR7 = molecular target: T1, human TLR7 (Homo sapiens, UniProt Q9NYK1); assay: TLR7 cellular reporter assay (HEK293, NFκB-luc); assay type: cell-based; details: HEK293 cells transfected with CMV-TLR7 and NFκB-luc, 6 hours incubation; lowest effective concentration
T1 construct: expressed in transfected cells; host or cells: HEK293 cells, transient transfection with CMV-TLR7 plasmid and NFκB-luc plasmid
T1 sequence (Q9NYK1 27-1049): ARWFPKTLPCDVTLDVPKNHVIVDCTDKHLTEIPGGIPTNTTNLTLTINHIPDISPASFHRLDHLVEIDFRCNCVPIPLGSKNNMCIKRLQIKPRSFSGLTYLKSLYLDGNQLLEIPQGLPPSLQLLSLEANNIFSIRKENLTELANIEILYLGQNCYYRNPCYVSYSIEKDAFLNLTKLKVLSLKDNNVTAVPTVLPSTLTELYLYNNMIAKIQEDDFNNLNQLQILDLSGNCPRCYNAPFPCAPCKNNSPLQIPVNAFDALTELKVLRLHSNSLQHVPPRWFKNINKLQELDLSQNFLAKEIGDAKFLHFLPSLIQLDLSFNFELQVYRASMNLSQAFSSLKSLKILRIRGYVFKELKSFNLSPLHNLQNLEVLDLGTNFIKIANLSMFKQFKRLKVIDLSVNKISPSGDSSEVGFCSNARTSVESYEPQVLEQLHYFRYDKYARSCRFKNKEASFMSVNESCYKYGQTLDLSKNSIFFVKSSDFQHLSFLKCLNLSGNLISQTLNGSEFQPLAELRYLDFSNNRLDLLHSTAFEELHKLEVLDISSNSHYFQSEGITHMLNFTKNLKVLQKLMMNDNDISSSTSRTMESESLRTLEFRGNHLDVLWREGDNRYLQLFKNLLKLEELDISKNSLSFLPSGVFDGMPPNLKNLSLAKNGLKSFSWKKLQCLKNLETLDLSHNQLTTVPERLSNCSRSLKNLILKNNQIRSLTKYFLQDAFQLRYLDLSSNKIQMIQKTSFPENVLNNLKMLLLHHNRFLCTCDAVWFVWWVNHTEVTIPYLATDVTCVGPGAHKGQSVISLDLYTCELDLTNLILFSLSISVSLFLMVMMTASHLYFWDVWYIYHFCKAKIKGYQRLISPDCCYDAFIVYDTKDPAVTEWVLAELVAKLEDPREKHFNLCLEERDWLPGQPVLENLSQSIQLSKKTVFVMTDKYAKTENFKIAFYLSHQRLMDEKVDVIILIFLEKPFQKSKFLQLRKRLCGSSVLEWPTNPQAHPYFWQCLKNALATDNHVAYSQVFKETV
Procedure: (§1) The ability of compounds to activate human TLR7 and/or TLR8 was assessed in a cellular reporter assay using HEK293 cells transiently transfected with a TLR7 or TLR8 expression vector and NFκB-luc reporter construct.
(§2) Briefly, HEK293 cells were grown in culture medium (DMEM supplemented with 10% FCS and 2 mM Glutamine). […] Thirty microliters of cells were then dispensed into each well in 384-well plates, where 10 μL of compound in 4% DMSO was already present. Following 6 hours incubation at 37° C., 5% CO2, the luciferase activity was determined by adding 15 μL of Steady Lite Plus substrate (Perkin Elmer) to each well and readout performed on a ViewLux ultraHTS microplate imager (Perkin Elmer). Dose response curves were generated from measurements performed in quadruplicates.

human TLR8 = molecular target: T2, human TLR8 (Homo sapiens, UniProt Q9NR97); assay: TLR8 cellular reporter assay (HEK293, NFκB-luc); assay type: cell-based; details: HEK293 cells transfected with CMV-TLR8 and NFκB-luc, 6 hours incubation; lowest effective concentration
T2 construct: expressed in transfected cells; host or cells: HEK293 cells, transient transfection with TLR8 plasmid and NFκB-luc plasmid
T2 sequence (Q9NR97 27-1041): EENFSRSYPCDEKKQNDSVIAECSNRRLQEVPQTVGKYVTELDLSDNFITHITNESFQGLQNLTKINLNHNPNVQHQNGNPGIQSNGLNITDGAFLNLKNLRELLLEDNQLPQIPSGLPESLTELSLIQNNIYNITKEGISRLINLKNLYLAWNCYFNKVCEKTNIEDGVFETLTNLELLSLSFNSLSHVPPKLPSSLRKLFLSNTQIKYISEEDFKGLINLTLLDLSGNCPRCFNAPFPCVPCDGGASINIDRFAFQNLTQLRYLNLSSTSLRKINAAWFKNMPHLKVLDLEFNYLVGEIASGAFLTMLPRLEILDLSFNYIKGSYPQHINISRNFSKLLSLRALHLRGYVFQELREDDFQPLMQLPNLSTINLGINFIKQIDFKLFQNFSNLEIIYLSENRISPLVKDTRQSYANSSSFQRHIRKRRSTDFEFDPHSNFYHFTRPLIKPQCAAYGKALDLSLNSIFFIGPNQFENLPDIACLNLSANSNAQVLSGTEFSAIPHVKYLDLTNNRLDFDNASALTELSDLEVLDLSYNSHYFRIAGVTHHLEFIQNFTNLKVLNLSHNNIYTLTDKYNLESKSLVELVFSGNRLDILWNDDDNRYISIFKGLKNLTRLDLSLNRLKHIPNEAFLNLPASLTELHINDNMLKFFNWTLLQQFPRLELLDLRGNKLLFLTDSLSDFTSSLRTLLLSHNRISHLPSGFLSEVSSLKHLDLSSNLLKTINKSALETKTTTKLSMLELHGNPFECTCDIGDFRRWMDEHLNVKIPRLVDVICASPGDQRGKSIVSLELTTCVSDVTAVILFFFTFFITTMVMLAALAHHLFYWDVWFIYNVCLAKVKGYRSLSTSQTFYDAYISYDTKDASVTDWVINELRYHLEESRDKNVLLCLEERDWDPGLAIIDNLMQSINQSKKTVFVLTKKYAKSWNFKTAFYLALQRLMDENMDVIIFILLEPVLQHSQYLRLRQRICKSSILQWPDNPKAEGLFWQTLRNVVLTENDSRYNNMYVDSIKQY
Procedure: as §1, §2

[1] = tested on: interferon-stimulated responsive elements (ISRE); assay: Activation of ISRE promoter elements by conditioned media from PBMC (HEK-ISREluc); assay type: cell-based, human; details: Homo sapiens; conditioned media from PBMC transferred to HEK-ISREluc cells, 24 hours; lowest effective concentration; read-out: PBMC LEC
Procedure: The potential of compounds to induce IFN-I was also evaluated by measuring the activation of interferon-stimulated responsive elements (ISRE) by conditioned media from PBMC. The ISRE element of sequence […] (SEQ. ID NO:1) is highly responsive to the STAT1-STAT2-IRF 9 transcription factor, activated upon binding of IFN-I to their receptor IFNAR (Clontech, PT3372-5W). […] A HEK293 cell line stably transfected with pISRE-Luc (HEK-ISREluc) was established to profile of the conditioned PBMC cell culture media.
Briefly, PBMCs were prepared from buffy coats of at least two donors using a standard Ficoll centrifugation protocol. Isolated PBMCs were resuspended in RPMI medium supplemented with 10% human AB serum and 2×10^5 cells/well were dispensed into 384-well plates containing compounds (70 μL total volume). After overnight incubation, 10 μL of supernatant was transferred to 384-well plates containing 5×10^3 HEK-ISREluc cells/well in 30 μL (plated the day before). Following 24 hours of incubation, activation of the ISRE elements was measured by assaying luciferase activity using 40 μL/well Steady Lite Plus substrate (Perkin Elmer) and measured with ViewLux ultraHTS microplate imager (Perkin Elmer). The stimulating activity of each compound on the HEK-ISREluc cells was reported as LEC value, defined as the compound concentration applied to the PBMCs resulting in a luciferase activity at least two fold above the standard deviation of the assay. The LEC in turn indicates the degree of ISRE activation on transfer of a defined amount of PBMC culture medium. Recombinant interferon α-2a (Roferon-A) was used as a standard control compound.

Row | Structure (SMILES) | TLR7 LEC (human TLR7) [µM] | TLR8 LEC (human TLR8) [µM] | minimal effective concentration [1] [µM]
1 | COCCn1ccc2nc(N)nc(N[C@H](C)c3ccccn3)c21 (single isomer, unassigned) [Compound 151] | 12.8 | >25 | 2.58
2 | COCCn1ccc2nc(N)nc(N[C@@H](C)c3ccccn3)c21 (single isomer, unassigned) [Compound 152] | 0.73 | >25 | 0.142
3 | C[C@@H](Nc1nc(N)nc2ccn(Cc3ccccn3)c12)c1ccccn1 (single isomer, unassigned) [Compound 194] |  | >25 | 
4 | C[C@H](Nc1nc(N)nc2ccn(Cc3ccccn3)c12)c1ccccn1 (single isomer, unassigned) [Compound 195] |  | >25 | 
5 | CCCCNc1nc(N)nc2ccn(Cc3ccccc3Oc3ccccc3)c12 [Compound 2] | 0.50 | >25 | 0.6
6 | CCCCNc1nc(N)nc2ccn(Cc3cc(F)ccc3Br)c12 [Compound 3] | 2.6 | >25 | 1.2
7 | CCCCNc1nc(N)nc2ccn(CCOC)c12 [Compound 4] | 0.60 | 13.5 | 0.4
8 | CCCCNc1nc(N)nc2ccn(Cc3cccc(F)c3)c12 [Compound 5] | 0.30 | >25 | 0.2
9 | CCCCNc1nc(N)nc2ccn(Cc3ccccc3Br)c12 [Compound 6] | 1.3 | >25 | 0.7
10 | Cc1cc(CNc2nc(N)nc3ccn(Cc4ccccn4)c23)no1 [Compound 89] |  | >25 | 
11 | COCCNc1nc(N)nc2ccn(Cc3ccccn3)c12 [Compound 119] |  | >25 | 
12 | Cc1cc(CNc2nc(N)nc3ccn(Cc4ccc(C(F)(F)F)cn4)c23)no1 [Compound 122] |  | >25 | 
13 | COc1ccc(Cn2ccc3nc(N)nc(NCc4cc(C)on4)c32)nc1OC [Compound 124] |  | >22 | 
14 | Cc1cc(CNc2nc(N)nc3ccn(Cc4ncccc4F)c23)no1 [Compound 125] |  | >25 | 
15 | Nc1nc(NCc2cc(C3CC3)on2)c2c(ccn2Cc2ccccn2)n1 [Compound 126] |  | >25 | 
16 | CC(C)c1cc(CNc2nc(N)nc3ccn(Cc4ccccn4)c23)no1 [Compound 127] |  | >25 | 
17 | COc1cccc(Cn2ccc3nc(N)nc(NCc4cc(C)on4)c32)n1 [Compound 131] |  | 24.6 | 
18 | Nc1nc(NCc2nccs2)c2c(ccn2Cc2ccccn2)n1 [Compound 136] |  | >25 | 
19 | COCCCNc1nc(N)nc2ccn(Cc3ccccn3)c12 [Compound 138] |  | >25 | 

Row | Structure (SMILES) | TLR7 LEC (human TLR7) [µM] | TLR8 LEC (human TLR8) [µM] | minimal effective concentration [1] [µM]
20 | CCOCCNc1nc(N)nc2ccn(Cc3ccccn3)c12 [Compound 140] |  | >25 | 
21 | CCC(O)CNc1nc(N)nc2ccn(Cc3ccccn3)c12 (centres unmarked) [Compound 141] |  | >25 | 
22 | Nc1nc(NCc2ncco2)c2c(ccn2Cc2ccccn2)n1 [Compound 142] |  | >25 | 
23 | Cc1cc(CNc2nc(N)nc3ccn(Cc4ccc(F)cn4)c23)no1 [Compound 144] |  | >25 | 
24 | Cc1cc(CNc2nc(N)nc3ccn(Cc4cc(C(F)(F)F)ccn4)c23)no1 [Compound 145] |  | >25 | 
25 | Nc1nc(NCc2ccon2)c2c(ccn2Cc2ccccn2)n1 [Compound 155] |  | >25 | 
26 | Cc1cc(CNc2nc(N)nc3ccn(Cc4ncccc4Cl)c23)no1 [Compound 156] |  | >25 | 
27 | Cc1cc(CNc2nc(N)nc3ccn(Cc4cc(Cl)ccn4)c23)no1 [Compound 158] |  | >25 | 
28 | COCCNc1nc(N)nc2ccn(CC(=O)N(C)C)c12 [Compound 166] | 4.88 |  | 
29 | COc1cccnc1Cn1ccc2nc(N)nc(NCc3cc(C)on3)c21 [Compound 170] |  | >25 | 
30 | COc1ccc(Cn2ccc3nc(N)nc(NCc4cc(C)on4)c32)nc1 [Compound 171] | 0.02 | >25 | 
31 | Cc1nc(CNc2nc(N)nc3ccn(Cc4ccccn4)c23)cs1 [Compound 174] |  | >25 | 
32 | Cc1cc(CNc2nc(N)nc3ccn(Cc4ccccn4)c23)on1 [Compound 184] |  | >25 | 
33 | Cc1ccc(CNc2nc(N)nc3ccn(Cc4ccccn4)c23)nc1 [Compound 189] |  | >25 | 
34 | CC(Nc1nc(N)nc2ccn(Cc3ccccn3)c12)c1ccccn1 (centres unmarked) [Compound 190] |  | >25 | 
35 | Cc1cnc(CNc2nc(N)nc3ccn(Cc4ccccn4)c23)o1 [Compound 191] |  | >25 | 
36 | Cc1cnc(CNc2nc(N)nc3ccn(Cc4ccccn4)c23)s1 [Compound 207] |  | 23 | 
37 | Cc1coc(CNc2nc(N)nc3ccn(Cc4ccccn4)c23)n1 [Compound 214] |  | >25 | 
38 | Cc1nnc(CNc2nc(N)nc3ccn(Cc4ccccn4)c23)o1 [Compound 216] |  | >25 | 
